Results on four molecules are retold here after patent publication US6794365B2, “Malonic acid derivatives, processes for their preparation their use and pharmaceutical compositions containing them” (Aventis Pharma Deutschland GmbH, priority 2000, dated 2004).

Experiment [1] deals with T1, factor Xa (Homo sapiens, UniProt P00742). In words: In vitro Factor Xa assay (Test 1a), chromogenic substrate S-2765. It counts as biochemical. More on the design: purchased Enzyme Research Laboratories, Inc; South Bend, Ind. As to conditions: Factor Xa inhibitory activity; Ki from IC50 corrected for substrate competition; 25° C., pH 7.8; read-out: Ki (FXa). Here is the method:
Purified enzymes are used in chromogenic assays. To determine the inhibition constant, the IC50 value is corrected for competition with substrate using the formula: […] where Km is the Michaelis-Menten-constant (Y.-C. Chen and W. H. Prusoff, Biochem. Pharmacol. 22: […] (1973), which is incorporated herein by reference). TBS-PEG buffer (50 mM Tris-Cl, pH 7.8, 200 mM NaCl, 0.05% (w/v) PEG-8000, 0.02% (w/v) NaN3) is used for this assay. The IC50 is determined by combining in appropriate wells of a Costar half-area microtiter plate 25 μl human factor Xa (Enzyme Research Laboratories, Inc.; South Bend, Ind.) in TBS-PEG; 40 μl 10% (v/v) DMSO in TBS-PEG (uninhibited control) or various concentrations of the compound to be tested diluted in 10% (v/v) DMSO in TBS-PEG; and substrate S-2765 (N-benzyloxycarbonyl-[…]-nitroanilide; Kabi Pharmacia, Inc.; Franklin Ohio) in TBS-PEG. […] The initial velocity of chromogenic substrate hydrolysis is measured by the change in absorbance at 405 nm using a Bio-tek Instruments kinetic plate reader ([…] 25° C. during the linear portion of the time course (usually 1.5 min after addition of substrate).

Another experiment deals with thrombin and factor Xa. To be noted: rate of inactivation thrombin vs factor Xa; cited from earlier work.
The conditions of experiment [2]: TAP at less than about two fold aPTT prolongation; heparin at doses causing five fold aPTT increase; cited from earlier work.
For experiment [3] the following is noted: recombinantly-produced inhibitor; cited from earlier work.
In experiment [4] the target is T1, factor Xa. To be noted: cited from earlier work.
The conditions of experiment [5]: subcutaneous; cited from earlier work.

Counter-ions that a name gives are not always drawn. Like-named read-outs stand apart in the source and are kept apart here.

T1 sequence (P00742 235-488 limits assumed): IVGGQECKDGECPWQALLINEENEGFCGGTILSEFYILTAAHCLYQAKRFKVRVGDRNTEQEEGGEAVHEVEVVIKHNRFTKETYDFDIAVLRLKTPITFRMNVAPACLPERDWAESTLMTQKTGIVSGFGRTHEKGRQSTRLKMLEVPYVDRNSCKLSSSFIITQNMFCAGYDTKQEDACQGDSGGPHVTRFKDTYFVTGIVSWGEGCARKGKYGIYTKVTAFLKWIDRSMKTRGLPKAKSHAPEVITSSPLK
T1 sequence (P00742 41-179 partner limits assumed): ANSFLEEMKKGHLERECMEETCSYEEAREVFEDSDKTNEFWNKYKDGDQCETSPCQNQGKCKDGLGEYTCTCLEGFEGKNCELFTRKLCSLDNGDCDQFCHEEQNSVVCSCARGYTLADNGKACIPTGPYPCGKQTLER

Usually Ki stands for a measure of affinity in units of concentration, obtained from inhibition or displacement. As for `CN(Cc1ccccc1)C(=O)C(Cc1ccc(C(=N)N)cc1)C(=O)N[C@H](C(=O)N[C@@H](CCCNC(=N)N)C(N)=O)C1CCCCC1` (stereo partly drawn) [Example 144, N-Benzyl-2-(4-carbamimidoyl-benzyl)-N′-[(S)-(1-(S)-carbamoyl-4-guanidino-butylcarbamoyl)-cyclohexyl-methyl]-N-methyl-malonamide trifluoroacetic acid salt], the Ki on factor Xa [1] was found to be 11 nM.
On to heparin [reference compound], for which the “thrombin inactivated faster than factor Xa” value in the experiment with thrombin and factor Xa is “approximately 100 times”. Further, in experiment [2], the “prevention of high-shear arterial thrombosis and reduced flow in graft” value is reported as “did not prevent thrombosis”.
On to “tick anticoagulant peptide (YNRLCIKPRDWIDECDSNEGGERAYFRNGKGGCDSFWICPEDHTGADYYSSYRDCFNACI; UniProt P17726 1-60, looked up) [TAP]”, for which, in experiment [3], the prevention of clotting result is on record as “prevent clotting”. The Ki in the experiment with factor Xa [4] is roughly 0.5 nM. Also, the “prevention of high-shear arterial thrombosis and reduced flow in graft” value in experiment [2] is given as “effectively prevents”.

B1: antistasin (protein, UniProt P15358 18-136, looked up)
Antistasin: QGPFGPGCEEAGCPEGSACNIITDRCTCSGVRCRMHCPHGFQRSRYGCEFCKCRLEPMKATCDISECPEGMMCSRLTNKCDCKIDINCRKTCPNGLKRDKLGCEYCECRPKRKLIPRLS
Turning to B1, the prevention of clotting result in experiment [3] was “prevent clotting”. Moreover, the Ki with factor Xa [4] was 0.05 nM. Besides, in experiment [5], the “treatment effect in DIC model” value is “effective treatment”.
